Test results reported in patent publication EP1935986B1, “Luminogenic and fluorogenic compounds and methods to detect molecules or conditions” (priority 2005, dated 2006).

Key:
porcine esterase = assay: Two-step luminescent carboxylesterase assay with D-luciferin esters; format: biochemical; details: result in words
Description: D-luciferin esters were substrates for carboxylesterases in a two step luminescent assay format similar to that used for P450s. […] Though signals varied between P450 preparations no P450 preparation was much brighter than the control. It seems likely then that the signals were not due to P450 activity in the preparations hut rather, variable amounts of carboxyl esterase activities. Methyl, ethyl and picolinyl esters of D-luciferin were also characterized as substrates for a purified preparation of porcine esterase without any p450. In this format each ester linked group was cleaved by the esterase to yield D-luciferin that in turn reacted with luciferase to make light.

[1] = system: panel of recombinant human P450s; assay: Two-step luminescent P450 screen of luciferin derivatives, whole panel incl. HLM; format: biochemical; details: 50 µM substrate; result in words
Description: In addition, it was also of interest to identify substrates with improved selectivity for single P450 enzymes. […] Derivatives useful as P450 substrates may be employed in assays to detect inhibitors for particular P450 enzymes (see Figures 17-18).
(§1) P450s are Supersomes™ purchased from Discovery Labware (BD/Gentest). […] HLM is human liver microsomes.
(§2) 1X substrate concentration: 50 µM.

QuantiLum Luciferase [2] = target: T1, QuantiLum Luciferase (Photinus pyralis, UniProt P08659); assay: pH dependence of firefly luciferase luminescence with luciferin or 5'-fluoroluciferin; format: biochemical; details: for Absolute Luminescence: 630 µM substrate
T1 construct: purchased Promega Corporation E170
T1 sequence (P08659 whole entry): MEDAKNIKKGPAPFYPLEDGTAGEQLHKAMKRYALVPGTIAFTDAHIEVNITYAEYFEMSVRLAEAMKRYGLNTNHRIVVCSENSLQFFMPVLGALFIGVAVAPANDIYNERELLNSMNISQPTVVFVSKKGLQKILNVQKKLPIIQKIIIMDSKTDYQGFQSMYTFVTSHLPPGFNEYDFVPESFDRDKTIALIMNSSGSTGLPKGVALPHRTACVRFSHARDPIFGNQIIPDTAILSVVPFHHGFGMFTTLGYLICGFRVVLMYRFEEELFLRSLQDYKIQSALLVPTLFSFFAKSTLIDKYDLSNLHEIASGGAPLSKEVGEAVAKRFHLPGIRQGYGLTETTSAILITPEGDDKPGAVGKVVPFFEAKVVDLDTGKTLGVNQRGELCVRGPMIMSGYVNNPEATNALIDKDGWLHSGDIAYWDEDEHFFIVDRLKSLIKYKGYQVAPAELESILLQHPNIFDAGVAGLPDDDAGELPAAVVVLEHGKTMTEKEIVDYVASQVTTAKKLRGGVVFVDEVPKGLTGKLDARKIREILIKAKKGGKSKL
Description: Aliquots of these solutions were then placed into tubes and buffers were added to 80 mM.
Luminescent reactions were initiated by combining 100 µl of the luciferase-containing solution and 100 µl of the luciferase detection reagents. Luminescence was integrated over 1 second per sample using the Veritas plate luminometer (Turner BioSystems). N=3 for each result.
The average luminescence measured for each set of samples is listed in Table 50 (relative standard deviation ≤ 4.0%). […]

QuantiLum Luciferase [3] = target: T1, QuantiLum Luciferase; assay: Emission spectra of luciferase reactions with luciferin, 5'-fluoroluciferin, 7'-fluoroluciferin; format: biochemical, firefly; details: reagent pH 7.4
Description: All compounds except fluoroluciferin and ATP were purchased from Sigma Chemical. ATP was purchased from Amersham/Invitrogen.
Spectra were measured using 0.5s integration with 1 nm increments on a Spex Fluorolog.

QuantiLum Luciferase [4] = target: T1, QuantiLum Luciferase; assay: ATP titration of firefly luciferase reactions with luciferin and fluoroluciferins; format: biochemical; details: result in words
Description: All compounds except 5'-fluoroluciferin and DTT were purchased from Sigma Chemical. To some of this reagent 5 mM ATP (Amersham/Invitrogen) was added, then serially diluted by half-logs to 0.05 mM. Reactions were initiated by adding equal volumes (0.1 ml) of reagent and DMEM medium (Gibco/Invitrogen) containing 0.1% Prionex® (Pentapharm) and 1.4 x 10-5 mg/ml QuantiLum™ Luciferase (Promega Corporation).
For ATP titrations for 7'-fluoroluciferin, reagent was created containing 200 mM HEPES, 200 mM PIPES, 1 mM CDTA, 0.5% Tergitol NP-9, 0.03% Benzyl dodecyldimethyl ammonium bromide, 30 mM thiourea, 10 mM magnesium sulfate, and 0.15 mM 7'-fluoroluciferin. This solution was separated into 3 parts and pH of the reagents were 7.4, 7.2 and 6.7. To some of this reagent, 10 mM ATP (Amersham/Invitrogen) was added. The ATP was serially diluted by quarter-logs from 10 mM to 0.32 mM.
Reactions were initiated by adding equal volumes (0.03 ml) of reagent and DMEM medium (Gibco/Invitrogen) containing 0.1% Prionex® (Pentapharm) and 1.4 x 10-5 mg/ml QuantiLum™ Luciferase (Promega Corporation).
Luminescence was measured for 0.5 seconds per well using Berthold Orion luminometer.

CYP2C9 = target: T2, CYP2C9 (Homo sapiens, UniProt P11712); assay: Two-step luminescent P450 screen of luciferin derivatives; format: biochemical; details: 50 µM substrate, 1 pmole P450; result in words
T2 construct: purchased Discovery Labware (BD/Gentest); host or cells: insect cell expression system (membrane fractions)
T2 sequence (P11712 whole entry): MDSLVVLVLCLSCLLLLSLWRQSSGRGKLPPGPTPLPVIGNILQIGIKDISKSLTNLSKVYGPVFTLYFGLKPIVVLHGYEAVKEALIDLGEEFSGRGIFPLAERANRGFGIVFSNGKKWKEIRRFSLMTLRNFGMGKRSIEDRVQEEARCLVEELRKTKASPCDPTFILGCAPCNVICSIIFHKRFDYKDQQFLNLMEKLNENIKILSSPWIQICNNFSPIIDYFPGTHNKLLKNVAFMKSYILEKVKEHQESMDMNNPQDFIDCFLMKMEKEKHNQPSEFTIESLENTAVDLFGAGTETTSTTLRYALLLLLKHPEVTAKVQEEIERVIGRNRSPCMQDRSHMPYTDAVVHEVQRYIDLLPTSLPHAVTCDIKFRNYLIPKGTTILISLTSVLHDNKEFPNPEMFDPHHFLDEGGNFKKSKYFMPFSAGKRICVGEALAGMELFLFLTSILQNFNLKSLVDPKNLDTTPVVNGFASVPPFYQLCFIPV
Description: as §1, §2

CYP4A11 = target: T3, CYP4A11 (Homo sapiens, UniProt Q02928); assay: as above; format: biochemical; details: result in words
T3 construct: purchased Discovery Labware (BD/Gentest); host or cells: insect cell expression system (membrane fractions)
T3 sequence (Q02928 5-519): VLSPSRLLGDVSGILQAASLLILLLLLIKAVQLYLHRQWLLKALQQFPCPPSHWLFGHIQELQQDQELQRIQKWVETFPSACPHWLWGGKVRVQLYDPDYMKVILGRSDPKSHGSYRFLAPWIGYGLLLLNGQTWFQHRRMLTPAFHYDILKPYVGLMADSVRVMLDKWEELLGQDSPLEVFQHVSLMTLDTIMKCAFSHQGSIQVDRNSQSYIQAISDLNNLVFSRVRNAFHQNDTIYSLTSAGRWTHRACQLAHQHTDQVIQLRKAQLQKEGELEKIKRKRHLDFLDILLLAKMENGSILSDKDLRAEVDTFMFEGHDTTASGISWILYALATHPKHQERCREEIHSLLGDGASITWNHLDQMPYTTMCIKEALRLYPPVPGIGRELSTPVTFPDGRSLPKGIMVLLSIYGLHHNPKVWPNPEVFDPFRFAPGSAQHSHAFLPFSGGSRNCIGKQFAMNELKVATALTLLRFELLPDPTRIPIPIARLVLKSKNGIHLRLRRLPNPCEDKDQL
Description: as §1, §2

With O=C(OCc1cccnc1)[C@H]1CSC(c2nc3ccc(O)cc3s2)=N1 [D-luciferin picolinyl ester, m-picolinyl ester of luciferin] the “substrate for carboxylesterases in a two step luminescent assay format” value (from here on “substrate for carboxylesterases”) (porcine esterase) was “effective”.
For Nc1ccc(Oc2ccc3nc(C4=N[C@@H](C(=O)O)CS4)ccc3c2)cc1 [6(p-aminophenyloxy)-quinolylluciferin], the “luminescent signals with the panel of P450 enzymes” value [1] was “did not produce large luminescent signals with any P450”.
COC(=O)[C@H]1CSC(c2nc3ccc(O)cc3s2)=N1 [D-luciferin methyl ester] was tested, and the “substrate for carboxylesterases” value (porcine esterase) was “effective”.
O=C(O)[C@H]1CSC(c2nc3cc(F)c(O)cc3s2)=N1 [5'-fluoroluciferin] was tested, and the “Absolute Luminescence” value (QuantiLum Luciferase [2]; pH 6.900, MOPS) was 272,127 RLU, the “change of luminescence over the pH range tested” value (QuantiLum Luciferase [2]; pH 6.9 to 8.3) was “about 40%” and the “Absolute Luminescence” value (QuantiLum Luciferase [2]; pH 7.133, MOPS) was 325,337 RLU. For the same compound, the “Absolute Luminescence” value (QuantiLum Luciferase [2]; pH 7.296, MOPS) was 331,515 RLU, the “Absolute Luminescence” value (QuantiLum Luciferase [2]; pH 7.303, HEPES) was 323,456 RLU and the “Absolute Luminescence” value (QuantiLum Luciferase [2]; pH 7.499, MOPS) was 334,288 RLU. For the same compound, the “Absolute Luminescence” value (QuantiLum Luciferase [2]; pH 7.521, HEPES) was 360,308 RLU, the “Absolute Luminescence” value (QuantiLum Luciferase [2]; pH 7.673, Tricine) was 351,411 RLU and the “Absolute Luminescence” value (QuantiLum Luciferase [2]; pH 7.720, HEPES) was 378,927 RLU. For the same compound, the “Absolute Luminescence” value (QuantiLum Luciferase [2]; pH 7.883, Tricine) was 357,883 RLU, the “decrease of luminescence when buffer changed from HEPES to tricine” value (QuantiLum Luciferase [2]; pH 7.89 reagent) was 6% and the “Absolute Luminescence” value (QuantiLum Luciferase [2]; pH 7.892, HEPES) was 377,498 RLU. For the same compound, the “Absolute Luminescence” value (QuantiLum Luciferase [2]; pH 8.100, Tricine) was 357,041 RLU, the “Absolute Luminescence” value (QuantiLum Luciferase [2]; pH 8.327, Tricine) was 317,030 RLU and the “λmax of luminescence, blue-shifted from regular luciferin” value (QuantiLum Luciferase [3]) was “approximately 25 nm”. For the same compound, the “λmax of luminescence, blue-shifted from regular luciferin” value (QuantiLum Luciferase [3]; listed as 5' fluoroluciferin) was “about 10 nm” and the “ATP requirement of the luciferase reaction compared with luciferin” value (QuantiLum Luciferase [4]) was “saturated with ATP at a higher concentration”.
In the case of CCOC(=O)[C@H]1CSC(c2nc3ccc(O)cc3s2)=N1 [D-luciferin ethyl ester], the “substrate for carboxylesterases” value (porcine esterase) was “effective”.
With COc1cc2nc(C3=NC(C(=O)O)CS3)sc2cc1OC (stereo not drawn) [5,6-dimethoxyluciferin] the “luminescent signals with the panel of P450 enzymes” value [1] was “did not produce large luminescent signals with any P450”, the “P450 activity / selectivity with the derivative as substrate” value (CYP2C9) was “preferred substrate” and the “P450 activity / selectivity with the derivative as substrate” value (CYP4A11) was “preferred substrate”.
